{"source": "ChEMBL document CHEMBL1147221", "about": "“Illudin S, the sole antiviral compound in mature fruiting bodies of Omphalotus illudens” (J Nat Prod, 2003)", "key": {"[1]": {"assay": "Cytotoxicity against african green monkey CV1 cells at 0.025 ug/disk by neutral red staining", "type": "cell-based", "conditions": "chlorocebus aethiops, cv-1"}, "[2]": {"assay": "Cytotoxicity against african green monkey CV1 cells at 1 ug/disk by neutral red staining", "type": "cell-based", "conditions": "chlorocebus aethiops, cv-1"}, "[3]": {"tested_on": "Human alphaherpesvirus 1", "assay": "Antiviral activity against HSV1 infected in african green monkey CV1 cells at 2.5 ug/disk by filter disk method", "type": "functional, organism-based", "conditions": "CV-1"}, "[4]": {"tested_on": "Human alphaherpesvirus 1", "assay": "Antiviral activity against HSV1 infected in african green monkey CV1 cells at 0.25 ug/disk by filter disk method", "type": "functional, organism-based", "conditions": "CV-1"}, "[5]": {"assay": "Cytotoxicity against african green monkey CV1 cells at 5 ug/disk by neutral red staining", "type": "cell-based", "conditions": "chlorocebus aethiops, cv-1"}, "[6]": {"assay": "Cytotoxicity against african green monkey CV1 cells at 0.5 ug/disk by neutral red staining", "type": "cell-based", "conditions": "chlorocebus aethiops, cv-1"}, "[7]": {"assay": "Cytotoxicity against african green monkey CV1 cells at 0.010 ug/disk by neutral red staining", "type": "cell-based", "conditions": "chlorocebus aethiops, cv-1"}, "[8]": {"tested_on": "Human alphaherpesvirus 1", "assay": "Antiviral activity against HSV1 infected in african green monkey CV1 cells at 0.05 ug/disk by filter disk method", "type": "functional, organism-based", "conditions": "CV-1"}, "[9]": {"assay": "Cytotoxicity against african green monkey CV1 cells at 0.1 ug/disk by neutral red staining", "type": "cell-based", "conditions": "chlorocebus aethiops, cv-1"}, "[10]": {"assay": "Cytotoxicity against african green monkey CV1 cells at 0.25 ug/disk by neutral red staining", "type": "cell-based", "conditions": "chlorocebus aethiops, cv-1"}, "[11]": {"tested_on": "Human alphaherpesvirus 1", "assay": "Antiviral activity against HSV1 infected in african green monkey CV1 cells at 10 ug/disk by filter disk method", "type": "functional, organism-based", "conditions": "CV-1"}, "[12]": {"assay": "Cytotoxicity against african green monkey CV1 cells at 10 ug/disk by neutral red staining", "type": "cell-based", "conditions": "chlorocebus aethiops, cv-1"}, "[13]": {"tested_on": "Human alphaherpesvirus 1", "assay": "Antiviral activity against HSV1 infected in african green monkey CV1 cells at 0.5 ug/disk by filter disk method", "type": "functional, organism-based", "conditions": "CV-1"}, "[14]": {"tested_on": "Human alphaherpesvirus 1", "assay": "Antiviral activity against HSV1 infected in african green monkey CV1 cells at 0.005 ug/disk by filter disk method", "type": "functional, organism-based", "conditions": "CV-1"}, "[15]": {"tested_on": "Human alphaherpesvirus 1", "assay": "Antiviral activity against HSV1 infected in african green monkey CV1 cells at 5 ug/disk by filter disk method", "type": "functional, organism-based", "conditions": "CV-1"}, "[16]": {"tested_on": "Human alphaherpesvirus 1", "assay": "Antiviral activity against HSV1 infected in african green monkey CV1 cells at 0.15 ug/disk by filter disk method", "type": "functional, organism-based", "conditions": "CV-1"}, "[17]": {"tested_on": "Human alphaherpesvirus 1", "assay": "Antiviral activity against HSV1 infected in african green monkey CV1 cells at 1 ug/disk by filter disk method", "type": "functional, organism-based", "conditions": "CV-1"}, "[18]": {"tested_on": "Human alphaherpesvirus 1", "assay": "Antiviral activity against HSV1 infected in african green monkey CV1 cells at 0.1 ug/disk by filter disk method", "type": "functional, organism-based", "conditions": "CV-1"}, "[19]": {"assay": "Cytotoxicity against african green monkey CV1 cells at 0.015 ug/disk by neutral red staining", "type": "cell-based", "conditions": "chlorocebus aethiops, cv-1"}, "[20]": {"assay": "Cytotoxicity against african green monkey CV1 cells at 0.05 ug/disk by neutral red staining", "type": "cell-based", "conditions": "chlorocebus aethiops, cv-1"}, "[21]": {"tested_on": "Human alphaherpesvirus 1", "assay": "Antiviral activity against HSV1 infected in african green monkey CV1 cells at 0.010 ug/disk by filter disk method", "type": "functional, organism-based", "conditions": "CV-1"}, "[22]": {"assay": "Cytotoxicity against african green monkey CV1 cells at 0.15 ug/disk by neutral red staining", "type": "cell-based", "conditions": "chlorocebus aethiops, cv-1"}, "[23]": {"assay": "Cytotoxicity against african green monkey CV1 cells at 2.5 ug/disk by neutral red staining", "type": "cell-based", "conditions": "chlorocebus aethiops, cv-1"}, "[24]": {"assay": "Cytotoxicity against african green monkey CV1 cells at 0.005 ug/disk by neutral red staining", "type": "cell-based", "conditions": "chlorocebus aethiops, cv-1"}}, "note": "Activity calls are given as the source filed them. The rule behind the calls is not given here.", "data": [{"compound": "CC1=C2C(=C[C@@](C)(CO)[C@@H]2O)C(=O)[C@](C)(O)C12CC2", "note": "[ILLUDIN]", "values": [{"measurement": "Activity", "setting": "[1]", "value": "Non-toxic"}, {"measurement": "Activity", "setting": "[2]", "value": "Toxic"}, {"measurement": "Activity", "setting": "[3]", "value": "inactive"}, {"measurement": "Activity", "setting": "[4]", "value": "inactive"}, {"measurement": "Activity", "setting": "[5]", "value": "Toxic"}, {"measurement": "Activity", "setting": "[6]", "value": "Toxic"}, {"measurement": "Activity", "setting": "[7]", "value": "Non-toxic"}, {"measurement": "Activity", "setting": "[8]", "value": "Active"}, {"measurement": "Activity", "setting": "[9]", "value": "Non-toxic"}, {"measurement": "Activity", "setting": "[10]", "value": "Toxic"}, {"measurement": "Activity", "setting": "[11]", "value": "inactive"}, {"measurement": "Activity", "setting": "[12]", "value": "Toxic"}, {"measurement": "Activity", "setting": "[13]", "value": "inactive"}, {"measurement": "Activity", "setting": "[14]", "value": "inactive"}, {"measurement": "Activity", "setting": "[15]", "value": "inactive"}, {"measurement": "Activity", "setting": "[16]", "value": "Active"}, {"measurement": "Activity", "setting": "[17]", "value": "inactive"}, {"measurement": "Activity", "setting": "[18]", "value": "Active"}, {"measurement": "Activity", "setting": "[19]", "value": "Non-toxic"}, {"measurement": "Activity", "setting": "[20]", "value": "Non-toxic"}, {"measurement": "Activity", "setting": "[21]", "value": "inactive"}, {"measurement": "Activity", "setting": "[22]", "value": "Non-toxic"}, {"measurement": "Activity", "setting": "[23]", "value": "Toxic"}, {"measurement": "Activity", "setting": "[24]", "value": "Non-toxic"}]}]}
